Literature values, collected in patent US8163058B2 (Whitehurst Associates, Inc., priority 2009, dated 2012).

Conditions: prior art description

CCCCNP(N)(N)=S [NBPT, N-(n-butyl) thiophosphoric triamide]
Hydrolytic stability: undergoes hydrolysis | Thermal stability: thermally unstable
